Tests used:
estrogen receptors = target: T1, estrogen receptors (Rattus norvegicus, UniProt P06211); assay: affinity to estrogen receptors, competition with 3H-labelled 17-β-estradiol (dextran-charcoal method); type: binding; details: rat uterus cytosol, Table 1; read-out: Affinity (concentration of compound where 50% competition (inhibition) with 3H-estradiol occurred)
T1 construct: rat uterus cytosol preparation; from tissue; host or cells: rat uterus cytosol
T1 sequence (P06211 1-600): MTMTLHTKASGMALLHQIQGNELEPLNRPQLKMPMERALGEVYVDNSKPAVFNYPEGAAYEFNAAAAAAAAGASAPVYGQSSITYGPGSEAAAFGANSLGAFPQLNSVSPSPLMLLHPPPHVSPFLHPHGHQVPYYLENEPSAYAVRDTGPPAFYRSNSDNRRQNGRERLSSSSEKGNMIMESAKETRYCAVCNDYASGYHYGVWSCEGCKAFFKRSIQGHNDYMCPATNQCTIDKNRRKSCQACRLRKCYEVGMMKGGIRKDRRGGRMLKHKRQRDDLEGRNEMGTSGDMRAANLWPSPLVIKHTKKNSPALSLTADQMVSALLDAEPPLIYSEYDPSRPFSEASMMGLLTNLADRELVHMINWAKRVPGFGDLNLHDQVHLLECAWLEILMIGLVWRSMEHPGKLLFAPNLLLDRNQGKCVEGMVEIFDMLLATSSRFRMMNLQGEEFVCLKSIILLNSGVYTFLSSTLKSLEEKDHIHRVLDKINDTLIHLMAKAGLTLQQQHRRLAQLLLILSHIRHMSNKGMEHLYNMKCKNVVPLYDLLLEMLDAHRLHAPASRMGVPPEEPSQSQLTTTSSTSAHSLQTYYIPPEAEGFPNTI
Method: The affinity to estrogen receptors was determined by the ability of the molecules to compete with ^3 H-labelled 17-β-estradiol in rat uterus cytosol preparation. After incubation, receptor-bound and receptor-unbound ligands were separated by a known dextrancharcoal method. (Korenman, S. G.: "Comparative binding affinity of estrogens and its relation to estrogenic potency". Steroids 13: 163-177, 1969). […] The results in table 1 are shown as follows: | with ^3 H--estradiol occurred

immature mouse uterus [1] = assay: estrogenic effect in vivo, immature mouse uterus weight
Method: (§1) The estrogen-antiestrogen (progesterone-antiprogesterone) effect in vivo was determined as follows:
The estrogenic properties of the molecules were determined by administering the molecules, suspended in sesam oil, subcutaneously to 21 days old immature mice on three consecutive days. The mice were killed on the fourth day and the uterus was weighed. Estradiol (positive control) increases the weight of the uterus. The weight correlates with the estrogenic effect of the molecules.
The estrogenic effect of compounds of the invention as measured by their ability to increase the weight of immature mouse uterus was usually far less than that of oestradiol, the positive control. […] At the dose of 0.5 mg/kg the oestrogenic effect of compound 1, 7 and 8 were respectively 20%, 75% and 83% less and at the dose of 5 mg/kg the oestrogenic effect of compound 2 was 60% less than that of oestradiol 0.05 mg/kg.
(§2) In Table 2 a summary of the oestrogenic/antioestrogenic and progestanic/antiprogestanic effect of some of the compounds can be seen. The percentages refer to increase/reduction in mice uterus weights.

immature mouse uterus [2] = assay: antiestrogenic effect in vivo, inhibition of oestradiol induced uterus weight increase in immature mice
Method: as §1
The antiestrogenic effects of the molecules were determined in a similar manner in immature mice. In this case, the ability of the molecules to inhibit estrogen-induced uterus weight increase was investigated, too.
The compound 1 at a dose of 0.5 mg/kg caused a 50% inhibition of oestradiol induced effect on mouse uterus.
as §2

mouse uterus [3] = assay: progestanic effect in vivo, reduction of mouse uterus weight; details: given alone
Method: as §1
(§3) The (anti)progestanic effects were studied in a similar manners as the estrogenic ones. Medroxyprogesterone acetate, which decreases uterus weight, was used as reference.
(§4) The progestanic and antiprogestanic effects of compounds were measured as described earlier. The compound No. 2 reduced the weight of mouse uterus by 49% compared to control while medroxyprogesterone acetate gave 40% reduction.
as §2

mouse uterus [4] = assay: antiprogestanic/synergistic effect in vivo, given together with medroxyprogesterone acetate, mouse uterus weight
Method: as §1, §3, §4, §2

[5] = system: MCF-7 human mammary adenocarcinoma cell line; assay: anti-tumour effect in vitro, growth of MCF-7 cells (bioluminescence ATP assay); type: cell-based; details: Homo sapiens, MCF7; MCF-7, Table 3; read-out: Antitumour effect (IC50 = concentration of compound where 50% inhibition of cell growth could be seen)
Method: The anti-tumour effect was studied in vitro as follows:
The growth of MCF-7 cell line (human mammary adenocarcinoma, known to be estrogen-dependent) was evaluated in the presence or absence of estradiol, medroxyprogesterone acetate or the molecules to be investigated. Combinations of molecule plus estradiol and molecule plus medroxyprogesterone were also studied. The amount of living cells after 4 h, 24 h and 48 h incubations were determined by bioluminescence assay (intracellular ATP determination).
The antitumour effects of the compounds had been tested in vitro against MCF-7 human mammary adenocarcinoma cell line and in vivo against DMBA-induced rat mammary adenocarcinomas and transplantable mammary adenocarcinoma.
In table 3 the antitumour effects of certain compounds can be seen.

mouse uterus [6] = assay: antiprogestanic/synergistic effect in vivo, given together with medroxyprogesterone acetate, mouse uterus weight; details: vs 20% for the acetate alone

In the case of CC/C(=C(\c1ccccc1)c1ccc(OCCN(CC)CC)cc1)C1CCCC1 [Compound 8, (Z)-2-cyclopentyl-1-[p-(N,N-diethyl-2-aminoethoxy)phenyl]-1-phenyl-1-butene], the IC50 (estrogen receptors) is reported as 100 to 1000 nM, the “oestrogenic effect, % less than that of oestradiol 0.05 mg/kg” value (immature mouse uterus [1]; 0.5 mg/kg, s.c., immature mice) is reported as 83% and the “estrogenic effect (in words)” value (immature mouse uterus [1]; immature mouse uterus weight) is reported as “dose dependent”. For the same compound, the “estrogenic effect at increased doses (in words)” value (immature mouse uterus [1]; increased doses (above 0.05 mg/kg), given alone) was “the estrogenic effect became evident”, the “inhibition of oestradiol induced effect on mouse uterus” value (immature mouse uterus [2]; 5 mg/kg) was 30% and the “Given with oestradiol: reduction in mice uterus weight” value (immature mouse uterus [2]; Table 2, 5 mg/kg, with oestradiol 0.05 mg/kg) was 32%. The “progestanic effect (in words)” value (mouse uterus [3]; 0.05 mg/kg) was “could be considered to be a progestanic one”, the “decrease in uterus weight” value (mouse uterus [3]; 0.05 mg/kg (lowest dose)) was 12% and the “Given with medroxyprogesterone acetate: reduction in mice uterus weight” value (mouse uterus [4]; Table 2, 0.5 mg/kg, with medroxyprogesterone acetate 0.06 mg/kg) was 16%. For the same compound, the “effect with medroxyprogesterone acetate at higher doses (in words)” value (mouse uterus [4]; higher doses, together with medroxyprogesterone acetate) was “an antiprogestanic effect was achieved”, the “antiprogestanic / synergistic effect with medroxyprogesterone acetate (in words)” value (mouse uterus [4]; together with medroxyprogesterone acetate) was “neither synergism nor inhibition of medroxyprogesterone acetate was seen” and the IC50 [5] was 1000 to 5000 nM. The “decrease in the weight of mouse uterus together with medroxyprogesterone acetate” value (mouse uterus [6]) was 16%.
